Data taken from patent US11084800B2 (Achillion Pharmaceuticals, Inc., priority 2017, dated 2021).

Molecular target: Human Factor D (Homo sapiens (Human), UniProt P00746)
Test: Human Factor D Assay
Type: biochemical
Details: Factor D inhibition, assay of Example 10; read-out: IC5 (Stars)
Summary of the method: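 Thioester substrate Z-L-Lys-SBz (100 μM) with Ellman's reagent DTNB (100 μM) reports activity of 80 nM human serum-derived enzyme, kinetically at 405 nm over 30 min. Compound preincubated 5 min, room temperature, pH 7.5 Tris/1 M NaCl; IC50 by nonlinear fit of rates.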

Human Factor D, sequence (P00746 26-253): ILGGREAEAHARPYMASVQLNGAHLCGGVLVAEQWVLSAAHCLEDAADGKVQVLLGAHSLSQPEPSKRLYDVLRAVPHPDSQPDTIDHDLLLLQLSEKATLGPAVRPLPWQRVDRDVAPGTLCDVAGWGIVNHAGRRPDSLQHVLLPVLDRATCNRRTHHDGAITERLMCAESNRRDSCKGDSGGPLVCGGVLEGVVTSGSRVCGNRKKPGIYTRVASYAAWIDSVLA

| SMILES | IC50 [nM] |
| --- | --- |
| CC(=O)c1nn(CC(=O)N2[C@H](C(=O)NC/C(F)=C(/C)c3ccccc3)C[C@@]3(C)C[C@@H]23)c2c(C)cc(-c3cnc(C)nc3)cc12 [Compound 561, (1R,3S,5R)-2-(2-(3-acetyl-7-methyl-5-(2 methylpyrimidin-5-yl)-1H-indazol-1-yl)acetyl)-N-((E)-2-fluoro-3-phenylbut-2-en-1-yl)-5-methyl-2-azabicyclo[3.1.0]hexane-3-carboxamide] | < 1000 |
| CC(=O)c1nn(CC(=O)N2[C@H](C(=O)Nc3nc(Br)ccc3CN3CCC(C)(F)CC3)C[C@@]3(C)C[C@@H]23)c2ccc(-c3cnc(C)nc3)cc12 [Compound 322, (1R,3S,5R)-2-(2-(3-acetyl-5-(2-methylpyrimidin-5-yl)-1H-indazol-1-yl)acetyl)-N-(6-bromo-3-((4-fluoro-4-methylpiperidin-1-yl)methyl)pyridin-2-yl)-5-methyl-2-azabicyclo[3.1.0]hexane-3-carboxamide] | < 1000 |
| CC(=O)c1nn(CC(=O)N2[C@H](C(=O)Nc3nc(Br)ccc3CN3CC4CC3CO4)C[C@@]3(C)C[C@@H]23)c2cnc(-c3cnc(C)nc3)cc12 (stereo partly drawn) [Compound 277, (1R,3S,5R)-N-(3-(2-oxa-5-azabicyclo[2.2.1]heptan-5-ylmethyl)-6-bromopyridin-2-yl)-2-(2-(3-acetyl-5-(2-methylpyrimidin-5-yl)-1H-pyrazolo[3,4-c]pyridin-1-yl)acetyl)-5-methyl-2-azabicyclo[3.1.0]hexane-3-carboxamide] | < 1000 |
| CC(=O)c1nn(CC(=O)N2[C@H](C(=O)Nc3nc(Br)ccc3C)C[C@@]3(CN4CCC[C@H]4C(=O)O)C[C@@H]23)c2c(C)cc(-c3cnc(C)nc3)cc12 [Compound 299, (((1R,3S,5R)-2-(2-(3-acetyl-7-methyl-5-(2-methylpyrimidin-5-yl)-1H-indazol-1-yl)acetyl)-3-((6-bromo-3-methylpyridin-2-yl)carbamoyl)-2-azabicyclo[3.1.0]hexan-5-yl)methyl)-L-proline] | < 1000 |
| CC(=O)c1nn(CC(=O)N2[C@H](C(=O)Nc3cc(C)cc(Br)n3)C[C@@]3(C)C[C@@H]23)c2c(C)cc(-c3cnc(C)nc3)cc12 [Compound 456, (1R,3S,5R)-2-(2-(3-acetyl-7-methyl-5-(2-methylpyrimidin-5-yl)-1H-indazol-1-yl)acetyl)-N-(6-bromo-4-methylpyridin-2-yl)-5-methyl-2-azabicyclo[3.1.0]hexane-3-carboxamide] | < 1000 |
| CCCCc1cc(Br)nc(NC(=O)[C@@H]2C[C@@]3(C)C[C@H]3N2C(=O)Cn2nc(C(C)=O)c3cc(-c4cnc(C)nc4)ccc32)c1 [Compound 549, (1R,3S,5R)-2-(2-(3-acetyl-5-(2-methylpyrimidin-5-yl)-1H-indazol-1-yl)acetyl)-N-(6-bromo-4-butylpyridin-2-yl)-5-methyl-2-azabicyclo[3.1.0]hexane-3-carboxamide] | < 1000 |
| CC(=O)c1cn(CC(=O)N2[C@H](C(=O)Nc3nc(Br)ccc3C)C[C@@]3(C)C[C@@H]23)c2c(C)cc(-c3cnc(C)nc3)cc12 [Compound 426, (1R,3S,5R)-2-(2-(3-acetyl-7-methyl-5-(2-methylpyrimidin-5-yl)-1H-indol-1-yl)acetyl)-N-(6-bromo-3-methylpyridin-2-yl)-5-methyl-2-azabicyclo[3.1.0]hexane-3-carboxamide] | < 1000 |
| CC(=O)c1nn(CC(=O)N2[C@H](C(=O)NC(CCc3ccccc3)(CCc3ccccc3)C(=O)O)C[C@@]3(C)C[C@@H]23)c2c(C)cc(-c3cnc(C)nc3)cc12 [Compound 533, 2-((1R,3S,5R)-2-(2-(3-acetyl-7-methyl-5-(2-methylpyrimidin-5-yl)-1H-indazol-1-yl)acetyl)-5-methyl-2-azabicyclo[3.1.0]hexane-3-carboxamido)-2-phenethyl-4-phenylbutanoic acid] | > 10000 |

Same assay, conditions: Table 6; Factor D 80 nM, substrate Z-L-Lys-SBz; read-out: IC50

| SMILES | IC50 [nM] |
| --- | --- |
| CC(=O)c1nn(CC(=O)N2[C@H](C(=O)Nc3nc(Br)ccc3C)C[C@@]3(C)C[C@@H]23)c2c(C(F)F)cc(-c3cnc(C)nc3)cc12 [Compound 146, (1R,3S,5R)-2-(2-(3-Acetyl-7-(difluoromethyl)-5-(2-methylpyrimidin-5-yl)-1H-indazol-1-yl)acetyl)-N-(6-bromo-3-methylpyridin-2-yl)-5-methyl-2-azabicyclo[3.1.0]hexane-3-carboxamide] | < 1000 |
| CC(=O)NC[C@@]12C[C@@H](C(=O)Nc3cccc(Br)n3)N(C(=O)Cn3nc(C(C)=O)c4cc(-c5cnc(C)nc5)ccc43)[C@@H]1C2 [Compound 44, (1R,3S,5R)-5-(Acetamidomethyl)-2-(2-(3-acetyl-5-(2-methylpyrimidin-5-yl)-1H-indazol-1-yl)acetyl)-N-(6-bromopyridin-2-yl)-2-azabicyclo[3.1.0]hexane-3-carboxamide] | < 1000 |
| CC(=O)c1nn(CC(=O)N2[C@H](C(=O)Nc3nc(Br)ccc3C)C[C@@]3(CN4CC5(COC5)C4)C[C@@H]23)c2c(C)cc(-c3cnc(C)nc3)cc12 [Compound 127, (1R,3S,5R)-5-(2-Oxa-6-azaspiro[3.3]heptan-6-ylmethyl)-2-(2-(3-acetyl-7-methyl-5-(2-methylpyrimidin-5-yl)-1H-indazol-1-yl)acetyl)-N-(6-bromo-3-methylpyridin-2-yl)-2-azabicyclo[3.1.0]hexane-3-carboxamide] | < 1000 |
| CC(=O)c1nn(CC(=O)N2C[C@@](F)(CF)C[C@H]2C(=O)Nc2nc(Br)ccc2C)c2c(CF)cc(-c3cnc(C)nc3)cc12 [Compound 76, (2S,4R)-1-(2-(3-acetyl-7-(fluoromethyl)-5-(2-methylpyrimidin-5-yl)-1H-indazol-1-yl)acetyl)-N-(6-bromo-3-methylpyridin-2-yl)-4-fluoro-4-(fluoromethyl)pyrrolidine-2-carboxamide] | < 1000 |
| CC(=O)c1nn(CC(=O)N2[C@H]3C[C@@]3(CN(C)C)C[C@H]2C(=O)Nc2nc(Br)ccc2C)c2ccc(-c3cnc(C)nc3)c(F)c12 [Compound 156, (1S,3S,5S)-2-(2-(3-Acetyl-4-fluoro-5-(2-methylpyrimidin-5-yl)-1H-indazol-1-yl)acetyl)-N-(6-bromo-3-methylpyridin-2-yl)-5-((dimethylamino)methyl)-2-azabicyclo[3.1.0]hexane-3-carboxamide] | > 10000 |
| CNc1ncc(-c2ccc3c(c2)c(C(C)=O)nn3CC(=O)N2[C@H](C(=O)Nc3nc(Br)ccc3C)C[C@@]3(C)C[C@@H]23)cn1 [Compound 120, (1R,3S,5R)-2-(2-(3-Acetyl-5-(2-(methylamino)pyrimidin-5-yl)-1H-indazol-1-yl)acetyl)-N-(6-bromo-3-methylpyridin-2-yl)-5-methyl-2-azabicyclo[3.1.0]hexane-3-carboxamide] | < 1000 |
| CC(=O)c1nn(CC(=O)N2[C@H](C(=O)Nc3ccc(F)c(Br)n3)C[C@@]3(C)C[C@@H]23)c2c(C)cc(-c3cnc(C)nc3)cc12 [Compound 46, (1R,3S,5R)-2-(2-(3-acetyl-7-methyl-5-(2-methylpyrimidin-5-yl)-1H-indazol-1-yl)acetyl)-N-(6-bromo-5-fluoropyridin-2-yl)-5-methyl-2-azabicyclo[3.1.0]hexane-3-carboxamide] | < 1000 |

Same assay, conditions: Table 8; Factor D 80 nM, substrate Z-L-Lys-SBz; read-out: IC50

| SMILES | IC50 [nM] |
| --- | --- |
| CCCNC(=O)c1nn(CC(=O)N2[C@H](C(=O)Nc3nc(Br)ccc3C)C[C@@]3(C)C[C@@H]23)c2ccc(-c3cnc(C)nc3)cc12 [Compound 475] | < 1000 |
